Assay [1] concerns inducible nitric oxide synthase (iNOS). Put plainly: Western blot analysis of iNOS (M1 marker) in LPS-stimulated glial cells. The following applies: LPS 100 ng/mL, 24 hours co-treatment, 0, 5, 10 and 20 μM; dose-dependent; primary rat glial cells (FIGS. 5a, b). It counts as cell-based. How it is done: Mixed glial cell cultures were prepared from cerebral cortex of newborn Wistar rats (Rattus norvegicus), as previously described [Monti, B.; D'Alessandro, C.; Farini, V.; Bolognesi, A.; Polazzi, E.; Contestabile, A.; Stirpe, F.; Battelli, M. G. In vitro and in vivo toxicity of type 2 ribosome-inactivating proteins lanceolin and stenodactylin on glial and neuronal cells. Neurotoxicology 2007, 28, 637-644]. Briefly, brain tissue was cleaned from meninges, trypsinized for 15 minutes at 37° C. and, after mechanical dissociation, the cell suspension was washed and plated on poly-L-lysine (Sigma-Aldrich, St. Louis, Mo., USA, 10 μg/mL) coated flasks (75 cm^2). Mixed glial cells were cultured for 10-13 days in Basal Medium Eagle (BME, Life technologies Ltd, Paisley, UK) supplemented with 100 mL/L heat-inactivated FBS (Life technologies), 2 mmol/L glutamine (Sigma-Aldrich) and 100 μmol/L gentamicin sulfate (Sigma-Aldrich).
Microglial cells were harvested from mixed glial cell cultures by mechanical shaking, resuspended in fresh medium without serum and plated on uncoated 35 mm Ø dishes at a density of 1.5×10^6 cells/1.5 mL medium/well for western blot analysis or on 96 wells at 1×10^5 cells/0.2 mL medium/well for MTT assay. Cells were allowed to adhere for 30 minutes and then washed to remove non-adhering cells. […]
(In general: In western blotting, separated proteins are transferred to a membrane and probed.)

Assay [2] relates to neurosphere cultures of primary rat neural stem cells. The assay is described as follows: Neurosphere cultures, immunocytochemistry for neural markers. It counts as cell-based. The following applies: 10 μM during a week; compared to control (FIG. 3). From the text:
Neurosphere (NS) cultures were derived from the hippocampus of adult rats and induced to proliferate using established passaging methods to achieve optimal cellular expansion according to published protocols [Ferron, S. R.; Andreu-Agullo, C.; Mira, H.; Sanchez, P.; Marques-Torrejon, M. A.; Farinas, I. A combined ex/in vivo assay to detect effects of exogenously added factors in neural stem cells. Nature Protoc. 2007, 2, 849-859]. Rats were decapitated, brains removed, and the hippocampus dissected as described [Morales-Garcia, J. A.; Luna-Medina, R.; Alfaro-Cervello, C.; Cortes-Canteli, M.; Santos, A.; Garcia-Verdugo, J. M.; Perez-Castillo, A. Peroxisome proliferator-activated receptor gamma ligands regulate neural stem cell proliferation and differentiation in vitro and in vivo. Glia 2011, 59, 293-307]. Briefly, cells were seeded into 12-well dishes and cultured in DMEM/F12 (1:1, Invitrogen) containing 10 ng/mL epidermal growth factor (EGF, Peprotech, London, UK), 10 ng/mL fibroblast growth factor (FGF, Peprotech), and B27 medium (Gibco). After 3 days in culture, NS were cultivated in the presence or absence of the indicated compounds (10 μM) during a week. After that, NS from 10-day old cultures were plated for 72 hours onto 100 μg/mL poly-L-lysine-coated coverslips in the absence of exogenous growth factors.
Neurogenesis is a crucial property for new AD-modifying drugs, since it confers the potential to increase endogenous regeneration as a repair mechanism in the damaged brain, and reduce neuronal loss and degeneration. Considering that GSK-3β inhibition is reported to regulate and increase neurogenesis [Lange, C.; Mix, E.; Frahm, J.; Glass, A.; Muller, J.; Schmitt, O.; Schmole, A. C.; Klemm, K.; Ortinau, S.; Hubner, R.; Frech, M. J.; Wree, A.; Rolfs, A. Small molecule GSK-3 inhibitors increase neurogenesis of human neural progenitor cells. Neurosci. […]

Each structure is given as a SMILES string.

Turning to `CCCNC1=NC(c2ccc(F)cc2)NC(=O)N1` (stereo not shown) [Example 6, 4-(4-fluorophenyl)-6-(propylamino)-3,4-dihydro-1,3,5-triazin-2(1H)-one], the “LPS-induced iNOS induction” value in assay [1] is “reduced”. The “number of MAP-2 positive cells (mature neuronal marker)” value in assay [2] was “significantly amplified”.

Regarding `CCNC1=NC(c2ccc(F)cc2)NC(=O)N1` (racemic) [Example 3, 6-(ethylamino)-4-(4-fluorophenyl)-3,4-dihydro-1,3,5-triazin-2(1H)-one], the “LPS-induced iNOS induction” value in assay [1] is recorded as “reduced”. Also, in assay [2], the “number of β-tubulin positive cells (immature neuronal marker)” value is given as “significantly increased”.

For the origin of these results see patent US9975861B2, “Dual inhibitor compounds for use in the treatment of neurodegenerative disorders and alzheimer's disease” (FONDAZIONE ISTITUTO ITALIANO DI TECNOLOGIA, priority 2014, dated 2018).
